From patent US20120190635A1, “SELECTIVE OXIDATION OF C-H BONDS OF MODIFIED SUBSTRATES BY P450 MONOOXYGENASE” (THE REGENTS OF THE UNIVERSITY OF MICHIGAN, priority 2009, published 2012)
Converted amounts (≈) assume the structure as drawn.

How the values were obtained:
[1] = tested on: Staphylococcus aureus ATCC6538P; assay: antibacterial MIC, microtiter dilution; conditions: for MIC: Staphylococcus aureus, ATCC6538P, read-out: Minimal inhibitory concentration; for Minimal inhibitory concentration: Staphylococcus aureus ATCC6538P, LB
[2] = tested on: Bacillus subtillis DHS5333; assay: antibacterial MIC, microtiter dilution; conditions: for MIC: Bacillus, DHS5333, read-out: Minimal inhibitory concentration; for Minimal inhibitory concentration: Bacillus subtillis DHS5333, LB
Acinetobacter baumannii = assay: antibacterial MIC, microtiter dilution; conditions: for MIC: read-out: Minimal inhibitory concentration; for Minimal inhibitory concentration: Mueller Hinten
Escherichia. coli TolC = assay: antibacterial MIC, microtiter dilution; conditions: Mueller Hinten; for MIC: Escherichia coli, read-out: Minimal inhibitory concentration, E. coli W3110 TolC disruption mutant; for Minimal inhibitory concentration: E. coli W3110 TolC disruption mutant
[3] = tested on: Kocuria rhizophila ATCC9341; assay: antibacterial MIC, microtiter dilution; conditions: for MIC: Kocuria rhizophila, ATCC9341, read-out: Minimal inhibitory concentration; for Minimal inhibitory concentration: Kocuria rhizophila ATCC9341, Nutrient broth
[4] = tested on: Multidrug resistant S. aureus (MRSA); assay: antibacterial MIC, microtiter dilution; conditions: for MIC: Staphylococcus aureus, MRSA, read-out: Minimal inhibitory concentration; for Minimal inhibitory concentration: Multidrug resistant S. aureus (MRSA), Mueller Hinten
Deinococcus radiodurans = assay: antibacterial MIC, microtiter dilution; conditions: 60 h; for Minimal inhibitory concentration: Special media, 30° C.; for MIC: read-out: Minimal inhibitory concentration, Deinococcus radiodurans, Special media, 30° C.
S. aureus NorA = assay: antibacterial MIC, microtiter dilution; conditions: for MIC: Staphylococcus aureus, read-out: Minimal inhibitory concentration; for Minimal inhibitory concentration: S. aureus 8325 NorA disruption mutant, Mueller Hinten
PikCD50N-RhFRED = PikCD50N-RhFRED (Streptomyces venezuelae, UniProt O87605, D50N); format: biochemical; conditions: for Number of products: Table 1
Chain of PikCD50N-RhFRED (O87605 other isoform, or with tags, fused parts or gaps D50N): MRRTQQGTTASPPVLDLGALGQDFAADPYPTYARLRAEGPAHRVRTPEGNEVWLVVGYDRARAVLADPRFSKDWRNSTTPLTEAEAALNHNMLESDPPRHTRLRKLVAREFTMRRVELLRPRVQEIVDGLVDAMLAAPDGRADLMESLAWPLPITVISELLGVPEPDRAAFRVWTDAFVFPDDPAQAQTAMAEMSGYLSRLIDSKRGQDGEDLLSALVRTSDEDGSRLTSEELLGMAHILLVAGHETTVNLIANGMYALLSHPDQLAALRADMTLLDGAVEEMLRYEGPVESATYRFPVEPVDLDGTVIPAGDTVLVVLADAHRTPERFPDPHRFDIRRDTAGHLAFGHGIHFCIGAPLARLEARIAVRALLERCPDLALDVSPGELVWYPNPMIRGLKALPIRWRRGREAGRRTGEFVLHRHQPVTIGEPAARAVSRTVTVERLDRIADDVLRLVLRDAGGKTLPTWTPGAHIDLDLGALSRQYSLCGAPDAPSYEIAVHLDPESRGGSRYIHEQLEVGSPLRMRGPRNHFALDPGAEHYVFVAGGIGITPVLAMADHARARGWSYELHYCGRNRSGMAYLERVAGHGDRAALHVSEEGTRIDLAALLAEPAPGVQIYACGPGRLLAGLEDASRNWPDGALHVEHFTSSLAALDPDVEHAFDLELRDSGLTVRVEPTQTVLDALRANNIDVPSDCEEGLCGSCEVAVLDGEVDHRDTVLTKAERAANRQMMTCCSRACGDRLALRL

SMILES	MIC [1] [µM]	MIC [2] [µM]	MIC (Acinetobacter baumannii) [µM]	MIC (Escherichia. coli TolC) [µM]	MIC [3] [µM]	MIC [4] [µM]	Minimal inhibitory concentration (Deinococcus radiodurans) [µM]	MIC (S. aureus NorA) [µM]	Minimal inhibitory concentration [1] [µM]	Minimal inhibitory concentration [2] [µM]	Minimal inhibitory concentration (Acinetobacter baumannii) [µM]	Minimal inhibitory concentration (Escherichia. coli TolC) [µM]	Minimal inhibitory concentration [3] [µM]	Minimal inhibitory concentration [4] [µM]	Minimal inhibitory concentration (S. aureus NorA) [µM]	Number of products (PikCD50N-RhFRED; PikCD50N-RhFRED)	MIC (Deinococcus radiodurans) [µM]	yield and selectivity (number of product peaks) relative to 12 (PikCD50N-RhFRED; PikCD50N-RhFRED)	hydroxylation by PikC / ability to serve as substrate, in words (PikCD50N-RhFRED)
C[C@@H]1C[C@H](N(C)C)[C@@H](O)[C@H](OC2CCCCCCC(O)CCCCC2)O1 (single isomer, unassigned) [Compound 8-C7OH-a]	> 400	> 400	> 400	> 400	> 400	> 400	400 (≈ 149 µg/mL)	> 400											
C[C@@H]1C[C@H](N(C)C)[C@@H](O)[C@H](OC2CCCCCCC(O)CCCCC2)O1 (single isomer, unassigned) [Compound 8-C7OH-b]							100 (≈ 37.2 µg/mL)		>400	>400	>400	400 (≈ 149 µg/mL)	>400	>400	>400				
CC[C@H]1OC(=O)[C@H](C)[C@@H](O[C@@H]2OC(C)CC(C)C2C)[C@@H](C)C[C@@H](C)C(=O)/C=C/[C@H]1C (stereo partly drawn) [Compound 1, YC-17, reference compound]	100 (≈ 42.3 µg/mL)	100 (≈ 42.3 µg/mL)	> 400	100 (≈ 42.3 µg/mL)	100 (≈ 42.3 µg/mL)	> 400		100 (≈ 42.3 µg/mL)								2	400 (≈ 169 µg/mL)		
CC[C@H]1OC(=O)[C@H](C)[C@@H](O[C@@H]2O[C@H](C)C[C@H](N(C)C)[C@H]2O)[C@@H](C)C[C@@H](C)C(=O)/C=C/[C@]1(C)O [Compound 2, methymycin, reference compound]	100 (≈ 47 µg/mL)	100 (≈ 47 µg/mL)	> 400	50 (≈ 23.5 µg/mL)	50 (≈ 23.5 µg/mL)	> 400		100 (≈ 47 µg/mL)									200 (≈ 93.9 µg/mL)		
CC[C@H]1OC(=O)[C@H](C)C(=O)[C@H](C)[C@@H](O[C@@H]2O[C@H](C)C[C@H](N(C)C)[C@H]2O)[C@@H](C)C[C@@H](C)C(=O)/C=C/[C@H]1C [Compound 4, narbomycin, reference compound]							100 (≈ 51 µg/mL)		6.2 (≈ 3.16 µg/mL)	<3.1	>400	25 (≈ 12.7 µg/mL)	<3.1	>400	3.1 (≈ 1.58 µg/mL)				
CC[C@H]1OC(=O)[C@H](C)C(=O)[C@H](C)[C@@H](O[C@@H]2O[C@H](C)C[C@H](N(C)C)[C@H]2O)[C@@H](C)C[C@@H](C)C(=O)/C=C/[C@]1(C)O [Compound 5, pikromycin, reference compound]							100 (≈ 52.6 µg/mL)		25 (≈ 13.1 µg/mL)	12.5 (≈ 6.57 µg/mL)	>400	100 (≈ 52.6 µg/mL)	6.2 (≈ 3.26 µg/mL)	>400	12.5 (≈ 6.57 µg/mL)				
C[C@@H]1C[C@H](N(C)C)[C@@H](O)[C@H](OC2CCCCCCCC(O)CCCC2)O1 (stereo partly drawn) [Compound 8-C6OH-a, (2S,3R,4S,6R)-4-(dimethylamino)-2-(6-hydroxycyclotridecyloxy)-6-methyltetrahydro-2H-pyran-3-ol]	> 400	> 400	> 400	> 400	> 400	> 400		> 400									> 400		
C[C@@H]1C[C@H](N(C)C)[C@@H](O)[C@H](OC2CCCCCCCC(O)CCCC2)O1 (stereo partly drawn) [Compound 8-C6OH-b, (2S,3R,4S,6R)-4-(dimethylamino)-2-(6-hydroxycyclotridecyloxy)-6-methyltetrahydro-2H-pyran-3-ol]							400 (≈ 149 µg/mL)		>400	>400	>400	>400	>400	>400	>400				
CC1CC(N(C)C)C(O)C(OC2CCCCC2)O1 (stereo not drawn) [Compound 13, 2-(Cyclohexyloxy)-4-(dimethylamino)-6-methyltetrahydro-2H-pyran-3-ol]	> 400	> 400	> 400	> 400	> 400	> 400		> 400								0	> 400		
CC1CC(N(C)C)C(O)C(OC2CCCC3CCCCC32)O1 (stereo not drawn) [Compound 14, 2-(Decahydronaphthalen-1-yloxy)-4-(dimethylamino)-6-methyltetrahydro-2H-pyran-3-ol]	> 400	> 400	> 400	> 400	> 400	> 400		> 400								0	> 400		
CCCCC#CCOC1OC(C)CC(N(C)C)C1O (stereo not drawn) [Compound 16, 4-(Dimethylamino)-2-(hept-2-ynyloxy)-6-methyltetrahydro-2H-pyran-3-ol]																0			
C#CCCCCCCCCCOC1OC(C)CC(N(C)C)C1O (stereo not drawn) [Compound 18, 4-(dimethylamino)-6-methyl-2-(undec-10-ynyloxy)-tetrahydro-2H-pyran-3-ol]	> 400	> 400	> 400	400 (≈ 130 µg/mL)	> 400	> 400		> 400									> 400		
CN(C)CCCOC1CCCCCCCCCCCCCC1 [Compound 24, 3-(cyclopentadecyloxy)-N,N-dimethylpropan-1-amine]																		improved compared to 12	
OC1CCCCCCCCCCC1 [Cyclododecanol, reference compound]	> 400	> 400	> 400	> 400	> 400	> 400		> 400									> 400		unable to serve as a substrate
OC1CCCCCCCCCCCCCC1 [Cyclopentadecanol, reference compound]	> 400	> 400	> 400	> 400	> 400	> 400		> 400									> 400		
OC1CCCCCCCCCCCC1 [Cyclotridecanol, reference compound]	> 400	> 400	> 400	> 400	> 400	> 400		> 400									> 400		
CC[C@H]1OC(=O)[C@H](C)[C@@H](O[C@H]2C[C@@](C)(OC)[C@@H](O)[C@H](C)O2)[C@H](C)[C@@H](O[C@@H]2O[C@H](C)C[C@H](N(C)C)[C@H]2O)[C@](C)(O)C[C@@H](C)C(=O)[C@H](C)[C@@H](O)[C@]1(C)O [Erythromycin, reference compound]	< 0.8	< 0.8	25 (≈ 18.3 µg/mL)	< 0.8	< 0.8	> 100		< 0.8									6.2 (≈ 4.55 µg/mL)		
